Data taken from patent US20090203705A1, “Spiro Compounds As NPY Y5 Receptor Antagonists” (priority 2008, published 2009).
Counter-ions that a name gives are not always drawn.

Target: T1, human NPY Y5 receptor (Homo sapiens, UniProt Q15761)
T1 construct: expressed in transfected cells; host or cells: HEK293 (cell line HEK 293 signal-hNPY Y5/G16z49)
T1 sequence (Q15761 1-445): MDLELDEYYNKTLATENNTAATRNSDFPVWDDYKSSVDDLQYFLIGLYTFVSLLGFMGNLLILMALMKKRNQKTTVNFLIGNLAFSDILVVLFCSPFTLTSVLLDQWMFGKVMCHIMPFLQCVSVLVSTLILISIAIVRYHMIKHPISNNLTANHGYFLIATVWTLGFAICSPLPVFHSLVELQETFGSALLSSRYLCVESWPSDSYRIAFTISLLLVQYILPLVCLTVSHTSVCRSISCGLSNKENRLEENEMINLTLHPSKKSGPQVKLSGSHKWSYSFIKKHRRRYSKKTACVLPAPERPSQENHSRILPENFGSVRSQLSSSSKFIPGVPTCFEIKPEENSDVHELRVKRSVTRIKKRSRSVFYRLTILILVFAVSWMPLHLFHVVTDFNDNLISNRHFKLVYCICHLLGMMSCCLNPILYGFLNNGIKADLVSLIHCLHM
Assay: FLIPR/Ca2+ functional activity at recombinant human NPY Y5 receptor
Format: cell-based
Settings: for activity at the highest concentration set by the experiment: assay not given, towards NPY Y5 receptor; for Ki: HEK 293 signal-hNPY Y5/G16z49 cells, inhibition of calcium release by PYY at EC80, Cheng-Prusoff, read-out: fpKi
Description: The functional activity of the compounds of the invention for the NPY Y5 receptor may be determined by the FLIPR/Ca^2+ assay as described below. Such potency is typically calculated from the IC50 obtained in FLIPR experiments as the concentration of a compound necessary to decrease 50% of the calcium release following cells exposure to a concentration of PYY eliciting 80% response (i.e. EC80), and is reported as a “fKi” value calculated by the following equation: […]
where EC80 and EC50 corresponding to the agonist (PYY) concentrations that eliciting 80% and 50% response, respectively (corresponding to the Cheng and Prusoff equation). In the context of the present invention pfKi values (corresponding to the […] of fKi) are used instead of fKi; pfKi results are only estimated to be accurate to about 0.3-0.5.
The functional activity at the human NPY Y5 receptor stably expressed in HEK293 cells was assessed using FLIPR/Ca^2+ methodology (cell line name: HEK 293 signal-hNPY Y5/G16z49). The assay is configured to re-direct receptor-mediated signalling to the calcium release from intracellular stores via the promiscuous Gal 6z49 protein. PYY (peptide YY) is an endogenous agonist and can activate the receptor, thereupon causing an increase in the level of calcium in the cells sensed by Fluo4-AM and measured by FLIPR. Antagonist effects are monitored by the blockade or decrease in calcium release once cells co-expressing hNPY Y5 receptor and Ga16z49 are exposed to a concentration of PYY eliciting 80% response (i.e. EC80). A non-linear, 4 parameter logistic curve-fit of the data generated pIC50 value. Applying the Cheng-Prusoff equation to antagonist concentration-response for inhibition of fixed PYY concentration yielded the fpKi values.
Cells are cultured in DMEM/F12 supplemented with 10% FBS, 2 mM Glutamine, 200 μg/ml hygromycin B and 500 μg/ml G418. The day before a FLIPR experiment, cells are plated out into 384-well Poly-D-Lysine coated FLIPR plates at a density of 200'000 cells/ml corrects to give 10'000 cells per 50 μL per well using medium without antibiotics. On the day of experiment, cells are washed with an assay buffer containing 20 mM HEPES/NaOH, 145 mM NaCl, 5 mM KCl, 1 mM MgCl2, 2 mM CaCl2, 1 g/L D-glucose and 2.5 mM probenecid, pH 7.3 and loaded with 2 μM Fluo-4 AM for 60 min at 37° C. and 5% CO2. The excess of dye solution is removed by washing cells with buffer. Compound solutions, prepared by serially diluting compounds in neat DMSO and then a final 1:50 dilution step in assay buffer added with 0.05% pluronic acid, are added and incubated with the loaded cells for 30 min at 37° C. and 5% CO2.
Cells are then put in the FLIPR for the stimulus addition corresponding to a concentration of PYY eliciting 80% of the response. The response of cells to the agonist is fast and measured for 2 min after PYY addition.

**Q.** How did the “activity at the highest concentration set by the experiment” value (shortened to “activity”) turn out when `Cl.O=C1OC2(CCC(CNc3nccc(OCc4ccccc4)n3)CC2)CN1c1cccnn1` (stereo not drawn) [Example 3-12, (Trans)-8-[({4-[(phenylmethyl)oxy]-2-pyrimidinyl}amino)methyl]-3-(3-pyridazinyl)-1-oxa-3-azaspiro[4.5]decan-2-one hydrochloride] was run?
**A.** don't show activity

**Q.** How did the “activity” value turn out when `CC(C)(C)OCCOc1ccc(NCC2CCC3(CC2)CN(c2cccnn2)C(=O)O3)nn1.Cl.Cl` (stereo not drawn) [Example 4-10, (Trans)-8-({[6-({2-[(1,1-dimethylethyl)oxy]ethyl}oxy)-3-pyridazinyl]amino}methyl)-3-(3-pyridazinyl)-1-oxa-3-azaspiro[4.5]decan-2-one dihydrochloride] was run?
**A.** don't show activity

**Q.** With `Cn1ccnc1-c1cnc(NCC2CCC3(CC2)CN(c2ccccn2)C(=O)O3)nc1` (stereo not drawn) [Example 3-6, (Trans)-8-({[5-(1-methyl-1H-imidazol-2-yl)-2-pyrimidinyl]amino}methyl)-3-(2-pyridinyl)-1-oxa-3-azaspiro[4.5]decan-2-one] as the compound, how does the “activity” value read?
**A.** don't show activity

**Q.** For `Cl.Cl.O=C1O[C@]2(CC[C@H](CNc3ccc(N4CCOCC4)nc3)CC2)CN1c1ccccn1` [Example 1-57, (Trans)-8-({[6-(4-morpholinyl)-3-pyridinyl]amino}methyl)-3-(2-pyridinyl)-1-oxa-3-azaspiro[4.5]decan-2-one.dihydrochloride], which “activity” value is on record?
**A.** don't show activity

**Q.** `O=C1O[C@]2(CC[C@H](CNc3ccc(-c4cccc(C(F)(F)F)c4)nn3)CC2)CN1c1cccnn1` [Example 4-40, (Trans)-3-(3-pyridazinyl)-8-[({6-[3-(trifluoromethyl)phenyl]-3-pyridazinyl}amino)methyl]-1-oxa-3-azaspiro[4.5]decan-2-one Hydrochloride] was tested. Which Ki did it give?
**A.** ≤ 0.1 nM

**Q.** Which Ki does the source give for `O=C1O[C@]2(CC[C@H](CNc3ccc(-c4ccccc4F)nn3)CC2)CN1c1cccnc1F` [Example 4-7, (Trans)-8-({[6-(2-fluorophenyl)-3-pyridazinyl]amino}methyl)-3-(2-fluoro-3-pyridinyl)-1-oxa-3-azaspiro[4.5]decan-2-one Hydrochloride] here?
**A.** ≤ 0.316 nM

**Q.** With `O=C1OC2(CCC(CNc3ncc(-c4ccnnc4)cn3)CC2)CN1c1ccccn1` (stereo not drawn) [Example 3-9, (Trans)-8-({[5-(4-pyridazinyl)-2-pyrimidinyl]amino}methyl)-3-(2-pyridinyl)-1-oxa-3-azaspiro[4.5]decan-2-one] as the compound, how does the “activity” value read?
**A.** don't show activity

**Q.** Which “activity” value does the source give for `O=C1OC2(CCC(CNc3ccc(Cl)nn3)CC2)CN1c1ccccn1` (stereo not drawn) [Example 4-12, (Trans)-8-{[(6-chloro-3-pyridazinyl)amino]methyl}-3-(2-pyridinyl)-1-oxa-3-azaspiro[4.5]-decan-2-one] here?
**A.** don't show activity

**Q.** How did the “activity” value turn out when `Cl.O=C1OC2(CCC(CNc3cc(-c4ccccc4)ccn3)CC2)CN1c1cccnn1` (stereo not drawn) [Example 1-39, (Trans)-8-{[(4-phenyl-2-pyridinyl)amino]methyl}-3-(3-pyridazinyl)-1-oxa-3-azaspiro[4.5]decan-2-one hydrochloride] was run?
**A.** don't show activity

**Q.** `Cc1cc(N2C[C@]3(CC[C@@H](CNc4ccc(-c5ccccc5C)nn4)CC3)OC2=O)ccn1` [Example 4-39, (Trans)-8-({[6-(2-methylphenyl)-3-pyridazinyl]amino}methyl)-3-(2-methyl-4-pyridinyl)-1-oxa-3-azaspiro[4.5]decan-2-one Dihydrochloride] was tested. Which Ki did it give?
**A.** ≤ 0.1 nM

**Q.** With `O=C1O[C@]2(CC[C@H](CNc3ccc(-c4cc(F)cc(F)c4)nn3)CC2)CN1c1cccnn1` [Example 4-3, (Trans)-8-({[6-(3,5-difluorophenyl)-3-pyridazinyl]amino}methyl)-3-(3-pyridazinyl)-1-oxa-3-azaspiro[4.5]decan-2-one Dihydrochloride] as the compound, how does the Ki read?
**A.** ≤ 0.1 nM

**Q.** With “(Trans)-8-({[4-(1-pyrimidinyl)-2-pyrimidinyl]amino}methyl)-3-(3-pyridazinyl)-1-oxa-3-azaspiro[4.5]decan-2-one Dihydrochloride [Example 3-11]” as the compound, how does the “activity” value read?
**A.** don't show activity

**Q.** `O=C1OC2(CCC(CNc3ncc(Br)cn3)CC2)CN1c1ccccn1` (stereo not drawn) [Example 3-7, (Trans)-8-{[(5-bromo-2-pyrimidinyl]amino}methyl)-3-(2-pyridinyl)-1-oxa-3-azaspiro[4.5]decan-2-one] was tested. Which “activity” value did it give?
**A.** don't show activity

**Q.** How did the “activity” value turn out when `Cl.Cl.O=C1OC2(CCC(CNc3ccc(C(F)(F)F)nc3)CC2)CN1c1cccnc1` (stereo not drawn) [Example 1-55, (Trans)-3-(3-pyridinyl)-8-({[6-(trifluoromethyl)-3-pyridinyl]amino}methyl)-1-oxa-3-azaspiro[4.5]decan-2-one Dihydrochloride] was run?
**A.** don't show activity

**Q.** Which “activity” value does the source give for `Cl.O=C1OC2(CCC(CNc3nsc4ccccc34)CC2)CN1c1cccnn1` (stereo not drawn) [Example 5-5, (Trans)-8-[(1,2-benzisothiazol-3-ylamino)methyl]-3-(3-pyridazinyl)-1-oxa-3-azaspiro[4.5]-decan-2-one Hydrochloride] here?
**A.** don't show activity

**Q.** Which Ki does the source give for `O=C1O[C@]2(CC[C@H](CNc3ccc(-c4ccccc4)nn3)CC2)CN1c1cccnn1` [Example 4-38, (Trans)-8-{[(6-phenyl-3-pyridazinyl)amino]methyl}-3-(3-pyridazinyl)-1-oxa-3-azaspiro[4.5]decan-2-one Dihydrochloride] here?
**A.** ≤ 1 nM

**Q.** For `O=C1O[C@]2(CC[C@H](CNc3ccc(Oc4ccccc4OC(F)(F)F)nn3)CC2)CN1c1cccnn1` [Example 4-56, (Trans)-3-(3-pyridazinyl)-8-({[6-({2-[(trifluoromethyl)oxy]phenyl}oxy)-3-pyridazinyl]amino}methyl)-1-oxa-3-azaspiro[4.5]decan-2-one], which Ki is on record?
**A.** ≤ 0.1 nM
